These results are taken from US7528164B2, “Substituted 4-aryl-4h-pyrrolo[2,3-h]chromenes and analogs as activators of caspases and inducers of apoptosis and the use thereof” (Cytovia, Inc., priority 2002, dated 2009).

One experiment relates to ZR-75-1. The experiment in a line: Caspase cascade activation assay in ZR-75-1 cells (N-(Ac-DEVD)-N'-ethoxycarbonyl-R110 fluorogenic substrate). Conditions: ZR-75-1 human breast cancer cells, 24 h incubation; for Caspase activity (Ratio): ratio of net RFU of test compound to control; for EC50: sigmoidal dose-response, read-out: Caspase potency EC50. The class given is cell-based. How it is done: (§1) Human breast cancer cell lines T-47D and ZR-75-1 were grown according to media component mixtures designated by American Type Culture Collection+10% FCS (Invitrogen Corporation), in a 5% CO2-95% humidity incubator at 37° C. T-47D and ZR-75-1 cells were maintained at a cell density between 30 and 80% confluency at a cell density of 0.1 to 0.6×10^6 cells/mL. Cells were harvested at 600×g and resuspended at 0.65×10^6 cells/mL into appropriate media+10% FCS. An aliquot of 45 μl of cells was added to a well of a 96-well microtiter plate containing 5 μl of a 10% DMSO in RPMI-1640 media solution containing about […] of 2-amino-3-cyano-4-(5-methyl-pyridin-3-yl)-7-methyl-4H-pyrrolo[2,3-h]chromene (Example 10) or other test compound (0.016 to 1 μM final). An aliquot of 45 μl of cells was added to a well of a 96-well microtiter plate containing 5 μl of a 10% DMSO in RPMI-1640 media solution without test compound as the control sample. The samples were mixed by agitation and then incubated at 37° C. for 24 h in a 5% CO2-95% humidity incubator. After incubation, the samples were removed from the incubator and 50 μl of a solution containing 20 μM of N-(Ac-DEVD)-N′-ethoxycarbonyl-R110 (SEQ ID No:1) fluorogenic substrate (Cytovia, Inc.; U.S. Pat. No. 6,335,429), 20% sucrose (Sigma), 20 mM DTT (Sigma), 200 mM NaCl (Sigma), 40 mM Na PIPES buffer pH 7.2 (Sigma), and 500 μg/ml lysolecithin (Calbiochem) was added. The samples were mixed by agitation and incubated at room temperature. Using a fluorescent plate reader (Model 1420 Wallac Instruments), an initial reading (T=0) was made approximately 1-2 min after addition of the substrate solution, employing excitation at 485 nm and emission at 530 nm, to determine the background fluorescence of the control sample. After the 3 h incubation, the samples were read for fluorescence as above (T=3 h).
(§2) The Relative Fluorescence Unit values (RFU) were used to calculate the sample readings as follows: RFU(T=3h)−Control RFU(T=0)=Net RFU(T=3h) The activity of caspase cascade activation was determined by the ratio of the net RFU value for 2-amino-3-cyano-4-(5-methyl-pyridin-3-yl)-7-methyl-4H-pyrrolo[2,3-h]chromene or other test compound to that of control samples. The EC50 (nM) was determined by a sigmoidal dose-response calculation (Prism 2.0, GraphPad Software Inc.).

A further experiment concerns T-47D. The experiment can be described thus: Caspase cascade activation assay in T-47D cells (N-(Ac-DEVD)-N'-ethoxycarbonyl-R110 fluorogenic substrate). The class given is cell-based. Conditions: T-47D human breast cancer cells, 24 h incubation; for EC50: sigmoidal dose-response, read-out: Caspase potency EC50; for Caspase activity (Ratio): ratio of net RFU of test compound to control. How it is done: as §1, §2

Each structure is given as a SMILES string. Like-named read-outs stand apart in the source and are kept apart here.

As for `COc1cc(C2C(C#N)=C(N)Oc3c2ccc2c3CCN2C)cc(Br)c1OC` (stereo not drawn) [Example 23, 2-Amino-4-(3-bromo-4,5-dimethoxyphenyl)-3-cyano-8,9-dihydro-7-methyl-4H-pyrrolo[2,3-h]chromene], the “Caspase activity (Ratio)” value in the experiment with ZR-75-1 worked out at 5.0; in the experiment with T-47D, 5.2. Besides, the half-maximal effective concentration (EC50) amounted to 2.3 nM in the experiment with ZR-75-1 and 3.3 nM in the experiment on T-47D (T47D).

For the compound `COc1cc(C2C(C#N)=C(N)Oc3c2ccc2c3ccn2C)cc(OC)c1OC` (stereo not drawn) [Example 24, 2-Amino-3-cyano-4-(3,4,5-trimethoxyphenyl)-7-methyl-4H-pyrrolo[2,3-h]chromene], the “Caspase activity (Ratio)” value in the experiment on ZR-75-1 amounted to 7.1; with T-47D it was 5.5. The EC50 in the experiment on ZR-75-1 worked out at 2.2 nM; with T-47D (T47D), 3.4 nM.

For the compound `Cn1ccc2c3c(ccc21)C(c1cccc([N+](=O)[O-])c1)C(C#N)=C(N)O3` (stereo not drawn) [Example 25, 2-Amino-3-cyano-4-(3-nitrophenyl)-7-methyl-4H-pyrrolo[2,3-h]chromene], the “Caspase activity (Ratio)” value in the experiment on ZR-75-1 came out at 7.1; in the experiment with T-47D, 3.2. Further, the EC50 was found to be 3.2 nM with ZR-75-1 and 7.2 nM in the experiment with T-47D (T47D).

In the case of `COc1cc(OC)cc(C2C(C#N)=C(N)Oc3c2ccc2c3ccn2C)c1` (stereo not drawn) [Example 26, 2-Amino-3-cyano-4-(3,5-dimethoxyphenyl)-7-methyl-4H-pyrrolo[2,3-h]chromene], the “Caspase activity (Ratio)” value came to 7.1 in the experiment on ZR-75-1 and 5.2 in the experiment with T-47D. The EC50 in the experiment with ZR-75-1 is 1.7 nM; in the experiment on T-47D (T47D) it was 3.5 nM.

Consider `COc1cccc(C2C(C#N)=C(N)Oc3c2ccc2c3ccn2C)c1` (stereo not drawn) [Example 28, 2-Amino-3-cyano-4-(3-methoxyphenyl)-7-methyl-4H-pyrrolo[2,3-h]chromene], for which the “Caspase activity (Ratio)” value with ZR-75-1 was 6.3; in the experiment on T-47D it was 4.6. In addition, the EC50 in the experiment with ZR-75-1 was 3.3 nM; with T-47D (T47D), 7.2 nM.

For `Cn1ccc2c3c(ccc21)C(c1cccc(Br)c1)C(C#N)=C(N)O3` (stereo not drawn) [Example 29, 2-Amino-3-cyano-4-(3-bromophenyl)-7-methyl-4H-pyrrolo[2,3-h]chromene], the figures for the “Caspase activity (Ratio)” value in the experiment with ZR-75-1 and in the experiment with T-47D were 6.3 and 3.3, respectively. Moreover, the EC50 is 5.7 nM in the experiment on ZR-75-1 and 12 nM with T-47D (T47D).

Take `Cn1ccc2c3c(ccc21)C(c1cc(F)cc(F)c1)C(C#N)=C(N)O3` (stereo not drawn) [Example 30, 2-Amino-3-cyano-4-(3,5-difluorophenyl)-7-methyl-4H-pyrrolo[2,3-h]chromene]: the “Caspase activity (Ratio)” value in the experiment with ZR-75-1 worked out at 5.6; with T-47D, 3.6. Besides, the half-maximal effective concentration (EC50) in the experiment on ZR-75-1 was determined as 3.4 nM; in the experiment on T-47D (T47D) it was 7.3 nM.

For the compound `COc1cc(C2C(C#N)=C(N)Oc3c2ccc2c3ccn2C)cc(I)c1OC` (stereo not drawn) [Example 31, 2-Amino-3-cyano-4-(4,5-dimethoxy-3-iodophenyl)-7-methyl-4H-pyrrolo[2,3-h]chromene], the “Caspase activity (Ratio)” value came out at 4.3 with ZR-75-1 and 6.3 with T-47D. The results for the EC50 in the experiment with ZR-75-1 and with T-47D (T47D) were 3.7 nM and 4.9 nM, respectively.

Consider `Cn1ccc2c3c(ccc21)C(c1cccc(C#N)c1)C(C#N)=C(N)O3` (stereo not drawn) [Example 32, 2-Amino-3-cyano-4-(3-cyanophenyl)-7-methyl-4H-pyrrolo[2,3-h]chromene], for which the “Caspase activity (Ratio)” value in the experiment with ZR-75-1 was determined as 3.6; with T-47D it was 5.3. For the same compound, the EC50 was determined as 2.9 nM in the experiment on ZR-75-1 and 6.9 nM in the experiment with T-47D (T47D).

As to `COc1cc(C2C(C#N)=C(N)Oc3c2ccc2c3ccn2CO)cc(OC)c1OC` (stereo not drawn) [Example 33, 2-Amino-3-cyano-4-(3,4,5-trimethoxyphenyl)-7-hydroxymethyl-4H-pyrrolo[2,3-h]chromene], the “Caspase activity (Ratio)” value in the experiment on ZR-75-1 was determined as 3.0; in the experiment on T-47D, 4.3. Also, the EC50 was found to be 3.3 nM with ZR-75-1 and 6.2 nM in the experiment with T-47D (T47D).

With `COc1cc(OC)cc(C2C(C#N)=C(N)Oc3c2ccc2c3ccn2CO)c1` (stereo not drawn) [Example 34, 2-Amino-3-cyano-4-(3,5-dimethoxyphenyl)-7-hydroxymethyl-4H-pyrrolo [2,3-h]chromene], the “Caspase activity (Ratio)” value in the experiment with ZR-75-1 is recorded as 3.9; in the experiment on T-47D, 3.3. Also, the EC50 in the experiment on ZR-75-1 was 6.5 nM; in the experiment on T-47D (T47D) it was 7.1 nM.

As to `CN1CCc2c1ccc1c2OC(N)=C(C#N)C1c1cc(F)cc(F)c1` (stereo not drawn) [Example 35, 2-Amino-3-cyano-4-(3,5-difluorophenyl)-8,9-dihydro-7-methyl-4H-pyrrolo [2,3-h]chromene], the “Caspase activity (Ratio)” value was determined as 5.5 with ZR-75-1 and 4.3 in the experiment with T-47D. The values for the EC50 with ZR-75-1 and in the experiment on T-47D (T47D) were 10 nM and 28 nM, respectively.

For `Cc1cncc(C2C(C#N)=C(N)Oc3c2ccc2c3CCN2C)c1` (stereo not drawn) [Example 36, 2-Amino-4-(5-methyl-pyridin-3-yl)-3-cyano-7-methyl-8,9-dihydro-4H-pyrrolo[2,3-h]chromene], the “Caspase activity (Ratio)” value is 6.3 with ZR-75-1 and 4.6 in the experiment with T-47D. In addition, the EC50 in the experiment with ZR-75-1 worked out at 5 nM; in the experiment with T-47D (T47D) it was 13 nM.

For `Cn1ccc2c3c(ccc21)C(c1ccc([N+](=O)[O-])s1)C(C#N)=C(N)O3` (stereo not drawn) [Example 37, 2-Amino-4-(5-nitro-thiophene-2-yl)-3-cyano-7-methyl-4H-pyrrolo[2,3-h]chromene], the “Caspase activity (Ratio)” value in the experiment with ZR-75-1 is on record as 6.7; in the experiment with T-47D it was 2.0. Also, the figures for the concentration giving a half-maximal response (EC50) in the experiment on ZR-75-1 and with T-47D (T47D) were 36 nM and > 100 nM, respectively.

Take `CCC=CCC=CCC=CCC=CCC=CCC=CCCC(=O)OCn1ccc2c3c(ccc21)C(c1cc(Br)c(OC)c(OC)c1)C(C#N)=C(N)O3` (stereo not drawn) [Example 38, 4,7,10,13,16,19-Docosahexaenoic acid {2-Amino-4-(3-bromo-4,5-dimethoxy-phenyl)-3-cyano-4H-pyrrolo[2,3-h]chromene}-7-ylmethyl ester]: the “Caspase activity (Ratio)” value is recorded as 6.9 in the experiment on ZR-75-1 and 5.2 in the experiment on T-47D. Moreover, the 50% effective concentration (EC50) in the experiment with ZR-75-1 is 29 nM; in the experiment on T-47D, 55 nM.

In the case of `CCC=CCC=CCC=CCC=CCC=CCC=CCCC(=O)OCn1ccc2c3c(ccc21)C(c1cncc(C)c1)C(C#N)=C(N)O3` (stereo not drawn) [Example 39, 4,7,10,13,16,19-Docosahexaenoic acid {2-Amino-3-cyano-4-(5-methyl-pyridin-3-yl)-4H-pyrrolo[2,3-h]chromene}-7-ylmethyl ester], the “Caspase activity (Ratio)” value in the experiment on ZR-75-1 is on record as 6.2; in the experiment on T-47D, 3.7. The values for the EC50 in the experiment with ZR-75-1 and with T-47D were 26 nM and 51 nM, respectively.

For the compound `Cn1ccc2c3c(ccc21)C(c1cccc(F)c1)C(C#N)=C(N)O3` (stereo not drawn) [Example 40A, 2-Amino-3-cyano-4-(3-fluorophenyl)-7-methyl-4H-pyrrolo[2,3-h]chromene], the results for the “Caspase activity (Ratio)” value with ZR-75-1 and in the experiment with T-47D were 4.1 and 5.1, respectively. For the same compound, the figures for the EC50 in the experiment on ZR-75-1 and in the experiment with T-47D (T47D) were 7.2 nM and 14 nM, respectively.

For the compound `Cn1ccc2c3c(ccc21)C(c1ccc(C#N)cc1)C(C#N)=C(N)O3` (stereo not drawn) [Example 40B, 2-Amino-3-cyano-4-(4-cyanophenyl)-7-methyl-4H-pyrrolo[2,3-h]chromene], the “Caspase activity (Ratio)” value with ZR-75-1 is recorded as 4.2; in the experiment with T-47D, 4.9. Also, the EC50 was 35 nM in the experiment on ZR-75-1 and 55 nM with T-47D (T47D).

Usually EC50 stands for the concentration at which the effect is half-maximal.
